Here are results for twelve compounds from patent US20070218189A1, “Reduction inhibitory agent for active oxygen eliminating-activity” (KABUSHIKI KAISHA HAYASHIBARA SEIBUTSU KAGAKU KENYUJO, priority 2001, published 2007).

What all share (type): biochemical
Data set [1] has as its system active oxygen. Kind of data set: Active oxygen eliminating activity of superoxide dismutase and antioxidants in cyclotetrasaccharide solution or water before and after storage (Experiment 7). The following applies: for Activity (unit/mg antioxidant) After one storage / Residual activity (%): dark; for Activity (unit/mg antioxidant) Before storage: superoxide dismutase 5 μg/ml, α-glucosyl hesperidin and α-glucosyl rutin 10 mg/ml, catechin 50 μg/ml. The procedure:
In one milliliter of 30% (w/v) cyclotetrasaccharide solution, which is prepared by using cyclotetrasaccharide obtained in Experiment 2, was dissolved five micrograms (μ g) of superoxide dismutase from a horseradish commercialized by Sigma Chemical Co., St. Louis, USA, 10 mg of α-glucosyl hesperidin commercialized by Hayashibara Biochemical Laboratories, Inc., Okayama Japan, 10 mg of α-glucosyl rutin commercialized by Hayashibara Biochemical Laboratories, Inc., Okayama, Japan, 250 μg of gallic acid commercialized by Wako Pure Chemical Industries, Ltd., Tokyo, Japan, or 50 μg of catechin to obtain a liquid composition. Each of the compositions was placed in a glass test tube, sealed with a rubber cap, and stored under a dark condition. As a control, water was used in place of the cyclotetrasaccharide solution.

In data set [2] the test system is superoxide, formed in a xanthine-xanthine oxidase system. Description: Active oxygen eliminating activity of powdery carrot compositions with saccharides before and after storage, nitro blue tetrazolium (NBT) test (Experiment 3). The following applies: for Activity (unit/g) After storage / Percentage of residual activity (%) / Activity (unit/g) Before storage: powdery carrot composition; for Activity (unit/g) After storage / Percentage of residual activity (%): saccharide added at 10% d.s.b., stored at 40° C. for seven days; for Activity (unit/g) Before storage: saccharide added to disrupted carrots at 10% d.s.b.; for residual percentage / reduction inhibitory activity for active oxygen eliminating activity among the saccharides tested: powdery carrot compositions, 40° C. seven days, in words. As to the method: Fresh raw carrots were disrupted by a mixer, and saccharides were respectively added to the mixture and dissolved therein to give a concentration of 10%, d.s.b. The solutions were dried under a reduced pressure at 40° C. for two days, dried in vacuo at the same temperature for 24 hours, and pulverized by a mixer into powdery carrot compositions. […] An about 100 g each of the compositions was placed and sealed in a 500-ml polystyrene container, and stored at 40° C. for seven days. The active oxygen eliminating activities of the compositions before and after storage were compared with each other. The active oxygen eliminating activity was assayed by the nitro blue tetrazolium (NBT) test by Toshio IMANARI et al. in Igakuno Ayumi, Vol. 101, pp. 496-497 (1977), and the level of superoxide, formed in a xanthine-xanthine oxidase system, was assayed by quantifying calorimetrically the content of formazan formed by reducing NBT. As a control, refined water was used as a test solution. One unit activity of active oxygen eliminating activity was defined as that inhibited 50% formazan formation as compared with the control. […] Thus cyclotetrasaccharide is preferable as an effective ingredient for a reduction inhibitory agent for active oxygen eliminating activity.

Data set [3] relates to superoxide, formed in a hypoxanthine-xanthine oxidase system. Kind of data set: Active oxygen eliminating activity of powdery carrot compositions with saccharides before and after storage, electron spin resonance (ESR) test (Experiment 4). The following applies: powdery carrot composition. The procedure:
Fresh raw carrots were disrupted as Experiment 3, and saccharides were respectively added to the mixture and dissolved therein to give a concentration of 10%, d.s.b. The solutions were dried under a reduced pressure at 40° C. for one day, dried in vacuo at the same temperature for 17 hours, and pulverized by a mixer into powdery carrot compositions. […] About 100 g each of the compositions was placed and sealed in a 500-ml polystyrene container, and stored at 40° C. for seven or fourteen days. The active oxygen eliminating activities of the compositions before and after storage were compared with each other. The active oxygen eliminating activity was assayed by the electron spin resonance (ESR) test by Toshihiko OZAWA in BUNSEKI, Vol. 2, pp. 68-74 (2000), and the level of superoxide, formed in a hypoxanthine-xanthine oxidase system, was assayed by the spin-trapping with 5,5-dimethyl-1-pyrroline-N-oxide in ESR.

Where [4] appears, read: cyclotetrasaccharide 0% (water), 80° C. 5 days, α-glucosyl hesperidin, α-glucosyl rutin 10 mg/ml, gallic acid 250 μg/ml.
The mark [5] stands for this setting: cyclotetrasaccharide 30%, 80° C. 5 days, α-glucosyl hesperidin, α-glucosyl rutin 10 mg/ml, gallic acid 250 μg/ml.
The mark [6] stands for this setting: cyclotetrasaccharide concentration 0% (water), gallic acid 250 μg/ml.
Where [7] appears, read: cyclotetrasaccharide concentration 30%, gallic acid 250 μg/ml.
Setting [8] is: cyclotetrasaccharide 0% (water), 25° C. 20 hours, 50 μg/ml.
Where [9] appears, read: cyclotetrasaccharide 30%, 25° C. 20 hours, 50 μg/ml.
Setting [10] is: cyclotetrasaccharide 0% (water), 60° C. 17 hours, 5 μg/ml.
The mark [11] stands for this setting: cyclotetrasaccharide 30%, 60° C. 17 hours, 5 μg/ml.

Consider α-glucosyl hesperidin, for which the “Activity (unit/mg antioxidant) After one storage” value stood at 1.0 unit/mg antioxidant in data set [1] (setting [4]) and 2.1 unit/mg antioxidant in data set [1] (setting [5]). The results for the “Residual activity (%)” value in data set [1] (setting [4]) and in data set [1] (setting [5]) were 26% and 53%, respectively. Besides, the “Activity (unit/mg antioxidant) Before storage” value was found to be 3.8 unit/mg antioxidant in data set [1] (setting [6]) and 4.0 unit/mg antioxidant in data set [1] (setting [7]).

Take catechin: the “Activity (unit/mg antioxidant) After one storage” value in data set [1] (setting [8]) worked out at 2.2 unit/mg antioxidant; in data set [1] (setting [9]), 240 unit/mg antioxidant. In addition, the “Residual activity (%)” value in data set [1] (setting [8]) is 0%; in data set [1] (setting [9]), 53%. In addition, the figures for the “Activity (unit/mg antioxidant) Before storage” value in data set [1] (setting [6]) and in data set [1] (setting [7]) were 470 unit/mg antioxidant and 450 unit/mg antioxidant, respectively.

In the case of `O=C(O)c1cc(O)c(O)c(O)c1` [Gallic acid, gallic acid], the “Activity (unit/mg antioxidant) After one storage” value in data set [1] (setting [4]) is listed as 390 unit/mg antioxidant; in data set [1] (setting [5]), 450 unit/mg antioxidant. The “Residual activity (%)” value in data set [1] (setting [4]) came to 66%; in data set [1] (setting [5]) it was 75%. Besides, the “Activity (unit/mg antioxidant) Before storage” value is given as 590 unit/mg antioxidant in data set [1] (setting [6]) and 600 unit/mg antioxidant in data set [1] (setting [7]).

Consider `OCC1OC2OCC3O[C@H](O[C@H]4C(O)C(CO)OC(OCC5O[C@H](O[C@@H](C1O)C2O)C(O)C(O)[C@@H]5O)C4O)C(O)C(O)[C@@H]3O` (some centres unmarked) [crystalline cyclotetrasaccharide hydrate], for which the “change of the active oxygen eliminating activity on storage of a powder mixture” value in data set [1] (powdery crystalline cyclotetrasaccharide hydrate mixed dry with either of the powdery antioxidants, storage test as in Table 5) is given as “almost no change of the active oxygen eliminating activity”.

Regarding `OC[C@@H](O)[C@@H](O)[C@H](O)[C@H](O)CO` [Mannitol, mannitol], in data set [2], the “Activity (unit/g) After storage” value is 59 unit/g, the “Percentage of residual activity (%)” value is 11% and the “Activity (unit/g) Before storage” value is on record as 520 unit/g.

As to `OC[C@H]1O[C@@](CO)(O[C@H]2O[C@H](CO)[C@@H](O)[C@H](O)[C@H]2O)[C@@H](O)[C@@H]1O` [Sucrose, sucrose], in data set [2], the “Activity (unit/g) After storage” value was determined as 180 unit/g, the “Percentage of residual activity (%)” value is 27% and the “Activity (unit/g) Before storage” value is listed as 660 unit/g.

In the case of `OC[C@H]1O[C@H](O[C@H]2O[C@H](CO)[C@@H](O)[C@H](O)[C@H]2O)[C@H](O)[C@@H](O)[C@@H]1O` [Trehalose, trehalose], in data set [2], the “Activity (unit/g) After storage” value is 380 unit/g, the “Percentage of residual activity (%)” value is given as 66%, the “Activity (unit/g) Before storage” value worked out at 580 unit/g and the “residual percentage / reduction inhibitory activity for active oxygen eliminating activity among the saccharides tested” value is on record as “highest residual percentage”.

For pullulan, in data set [2], the “Activity (unit/g) After storage” value is 360 unit/g, the “Percentage of residual activity (%)” value stood at 51%, the “Activity (unit/g) Before storage” value is listed as 710 unit/g and the “residual percentage / reduction inhibitory activity for active oxygen eliminating activity among the saccharides tested” value is recorded as “relatively-high reduction inhibitory activity”.

Regarding Superoxide dismutase, the figures for the “Activity (unit/mg antioxidant) After one storage” value in data set [1] (setting [10]) and in data set [1] (setting [11]) were 4,600 unit/mg antioxidant and 7,300 unit/mg antioxidant, respectively. In addition, the results for the “Residual activity (%)” value in data set [1] (setting [10]) and in data set [1] (setting [11]) were 46% and 61%, respectively. The figures for the “Activity (unit/mg antioxidant) Before storage” value in data set [1] (setting [6]) and in data set [1] (setting [7]) were 10,000 unit/mg antioxidant and 12,000 unit/mg antioxidant, respectively.

On to α-glucosyl rutin, for which the “Activity (unit/mg antioxidant) After one storage” value in data set [1] (setting [4]) worked out at 18 unit/mg antioxidant; in data set [1] (setting [5]) it was 22 unit/mg antioxidant. Besides, the “Residual activity (%)” value in data set [1] (setting [4]) worked out at 72%; in data set [1] (setting [5]), 85%. The “Activity (unit/mg antioxidant) Before storage” value amounted to 25 unit/mg antioxidant in data set [1] (setting [6]) and 26 unit/mg antioxidant in data set [1] (setting [7]).

For `OC[C@H]1O[C@H](O[C@H]2[C@H](O)[C@@H](O)C(O)O[C@@H]2CO)[C@H](O)[C@@H](O)[C@@H]1O` (mixture of isomers) [Maltose, maltose], in data set [2], the “Activity (unit/g) After storage” value was 180 unit/g, the “Percentage of residual activity (%)” value came to 33% and the “Activity (unit/g) Before storage” value was found to be 550 unit/g. Moreover, the “Activity (unit/g) Before storage” value in data set [3] (saccharide added at 10% d.s.b., before storage) turned out to be 236 unit/g. Moreover, the “Activity (unit/g) After two weeks storage” value in data set [3] (stored at 40° C. for fourteen days) is reported as 53 unit/g. The “percentage of residual activity After two weeks storage” value in data set [3] (stored at 40° C. for fourteen days, numerals in parentheses) is given as 22%. The “Activity (unit/g) After one week storage” value in data set [3] (stored at 40° C. for seven days) was 56 unit/g. In data set [3] (stored at 40° C. for seven days, numerals in parentheses), the “percentage of residual activity After one week storage” value was determined as 24%.

With `OC[C@@H](O)[C@@H](O)[C@H](O)[C@@H](O)CO` [Sorbitol, sorbitol], in data set [2], the “Activity (unit/g) After storage” value turned out to be 26 unit/g, the “Percentage of residual activity (%)” value is 5% and the “Activity (unit/g) Before storage” value was found to be 560 unit/g.
